Results: patent US11078202B2, “β-lactamase inhibitor and use thereof” (priority 2018, dated 2021)
Where a name gives a salt, the structure may show the parent alone.

How the values were obtained:
Type in all cases: cell-based
[1] = test system: Pseudomonas aeruginosa XNWB 0008; experiment: MIC assay of test compounds combined with ceftazidime (8 μg/mL); settings: ceftazidime 8 μg/mL fixed
In short: (§1)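 Strains were revived from −80 °C stocks on TSA, subcultured, and single colonies were resuspended in saline to OD600 0.1-0.15. After a 300-fold dilution in 1.1×CAMHB, cells were combined with diluted compound and a fixed antibiotic. Growth was assessed after 16-20 h at 35±2 °C.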

[2] = test system: Acinetobacter baumannii XNWB 0007; experiment: as above; settings: ceftazidime 8 μg/mL fixed
In short: as §1

[3] = test system: Klebsiella pneumoniae XNWB 0004; experiment: as above; settings: ceftazidime 8 μg/mL fixed
In short: as §1

[4] = test system: Klebsiella pneumoniae XNWB 0003; experiment: as above; settings: ceftazidime 8 μg/mL fixed
In short: as §1

[5] = test system: Klebsiella pneumoniae XNWB 0001; experiment: as above; settings: ceftazidime 8 μg/mL fixed
In short: as §1

[6] = test system: Klebsiella pneumoniae XNWB 0006; experiment: as above; settings: ceftazidime 8 μg/mL fixed
In short: as §1

[7] = test system: Klebsiella pneumoniae XNWB 0002; experiment: as above; settings: ceftazidime 8 μg/mL fixed
In short: as §1

[8] = test system: Klebsiella pneumoniae XNWB 0005; experiment: as above; settings: ceftazidime 8 μg/mL fixed
In short: as §1

[9] = test system: Pseudomonas aeruginosa XNWB 0008; experiment: MIC assay of test compounds combined with imipenem (4 μg/mL); settings: imipenem 4 μg/mL fixed
In short: as §1

[10] = test system: Acinetobacter baumannii XNWB 0007; experiment: as above; settings: imipenem 4 μg/mL fixed
In short: as §1

[11] = test system: Klebsiella pneumoniae XNWB 0004; experiment: as above; settings: imipenem 4 μg/mL fixed
In short: as §1

[12] = test system: Klebsiella pneumoniae XNWB 0003; experiment: as above; settings: imipenem 4 μg/mL fixed
In short: as §1

[13] = test system: Klebsiella pneumoniae XNWB 0001; experiment: as above; settings: imipenem 4 μg/mL fixed
In short: as §1

[14] = test system: Klebsiella pneumoniae XNWB 0006; experiment: as above; settings: imipenem 4 μg/mL fixed
In short: as §1

[15] = test system: Klebsiella pneumoniae XNWB 0002; experiment: as above; settings: imipenem 4 μg/mL fixed
In short: as §1

[16] = test system: Klebsiella pneumoniae XNWB 0005; experiment: as above; settings: imipenem 4 μg/mL fixed
In short: as §1

Structure (SMILES)	The minimum concentration of test compounds combined with ceftazidime (8 μg/mL) for bacteriostasis [1]	The minimum concentration of test compounds combined with ceftazidime (8 μg/mL) for bacteriostasis [2]	The minimum concentration of test compounds combined with ceftazidime (8 μg/mL) for bacteriostasis [3]	The minimum concentration of test compounds combined with ceftazidime (8 μg/mL) for bacteriostasis [4]	The minimum concentration of test compounds combined with ceftazidime (8 μg/mL) for bacteriostasis [5]	The minimum concentration of test compounds combined with ceftazidime (8 μg/mL) for bacteriostasis [6]	The minimum concentration of test compounds combined with ceftazidime (8 μg/mL) for bacteriostasis [7]	The minimum concentration of test compounds combined with ceftazidime (8 μg/mL) for bacteriostasis [8]	The minimum concentration of test compounds combined with imipenem (4 μg/mL) for bacteriostasis [9]	The minimum concentration of test compounds combined with imipenem (4 μg/mL) for bacteriostasis [10]	The minimum concentration of test compounds combined with imipenem (4 μg/mL) for bacteriostasis [11]	The minimum concentration of test compounds combined with imipenem (4 μg/mL) for bacteriostasis [12]	The minimum concentration of test compounds combined with imipenem (4 μg/mL) for bacteriostasis [13]	The minimum concentration of test compounds combined with imipenem (4 μg/mL) for bacteriostasis [14]	The minimum concentration of test compounds combined with imipenem (4 μg/mL) for bacteriostasis [15]	The minimum concentration of test compounds combined with imipenem (4 μg/mL) for bacteriostasis [16]
CNCCNC[C@H](O)c1nnc([C@@H]2CC3(CC3)[C@@H]3CN2C(=O)N3OS(=O)(=O)O)o1 [Example 30, (1R,4S)-4-(5-((S)-1-hydroxy-2-((2-(methylamino)ethyl)amino)ethyl)-1,3,4-oxadiazol-2-yl)-6-oxo-5,7-diazaspiro[bicyclo[3.2.1]octane-2,1′-cyclopropan]-7-yl sulfate]	C (C: 16-128 μg/mL)	C (C: 16-128 μg/mL)	B (B: 8-16 μg/mL)	A (A: <8 μg/mL)	B (B: 8-16 μg/mL)	A (A: <8 μg/mL)	A (A: <8 μg/mL)	B (B: 8-16 μg/mL)	C (C: 16-128 μg/mL)	B (B: 8-16 μg/mL)	A (A: <8 μg/mL)	A (A: <8 μg/mL)	A (A: <8 μg/mL)	A (A: <8 μg/mL)	A (A: <8 μg/mL)	A (A: <8 μg/mL)
NCCNC[C@H](O)c1nnc([C@@H]2CC3(CC3)[C@@H]3CN2C(=O)N3OS(=O)(=O)O)o1 [Example 31, (1R,4S)-4-(5-((S)-2-((2-aminoethyl)amino)-1-hydroxyethyl)-1,3,4-oxadiazol-2-yl)-6-oxo-5,7-diazaspiro[bicyclo[3.2.1]octane-2,1′-cyclopropan]-7-yl sulfate]	C (C: 16-128 μg/mL)	C (C: 16-128 μg/mL)	B (B: 8-16 μg/mL)	A (A: <8 μg/mL)	A (A: <8 μg/mL)	A (A: <8 μg/mL)	A (A: <8 μg/mL)	A (A: <8 μg/mL)	B (B: 8-16 μg/mL)	B (B: 8-16 μg/mL)	A (A: <8 μg/mL)	A (A: <8 μg/mL)	A (A: <8 μg/mL)	A (A: <8 μg/mL)	A (A: <8 μg/mL)	A (A: <8 μg/mL)
CNCc1cc([C@@H]2CC3(CC3)[C@@H]3CN2C(=O)N3OS(=O)(=O)O)no1 [Example 32]	C (C: 16-128 μg/mL)	C (C: 16-128 μg/mL)	C (C: 16-128 μg/mL)	B (B: 8-16 μg/mL)	B (B: 8-16 μg/mL)	B (B: 8-16 μg/mL)	A (A: <8 μg/mL)	C (C: 16-128 μg/mL)	C (C: 16-128 μg/mL)	C (C: 16-128 μg/mL)	A (A: <8 μg/mL)	A (A: <8 μg/mL)	A (A: <8 μg/mL)	A (A: <8 μg/mL)	A (A: <8 μg/mL)	A (A: <8 μg/mL)
CN(Cc1cc([C@@H]2CC3(CC3)[C@@H]3CN2C(=O)N3OS(=O)(=O)O)no1)C(=N)N [Example 33, (1R,4S)-4-(5-((1-methylguanidino)methyl)isoxazol-3-yl)-6-oxo-5,7-diazaspiro[bicycle [3.2.1]octane-2,1′-cyclopropan]-7-yl sulfate]	C (C: 16-128 μg/mL)	C (C: 16-128 μg/mL)	C (C: 16-128 μg/mL)	C (C: 16-128 μg/mL)	B (B: 8-16 μg/mL)	A (A: <8 μg/mL)	A (A: <8 μg/mL)	B (B: 8-16 μg/mL)	B (B: 8-16 μg/mL)	C (C: 16-128 μg/mL)	A (A: <8 μg/mL)	A (A: <8 μg/mL)	A (A: <8 μg/mL)	A (A: <8 μg/mL)	A (A: <8 μg/mL)	A (A: <8 μg/mL)
N=C(N)NCc1cc([C@@H]2CC3(CC3)[C@@H]3CN2C(=O)N3OS(=O)(=O)O)no1 [Example 34, (1R,4S)-4-(5-(guanidinomethyl)isoxazol-3-yl)-6-oxo-5,7-diazaspiro[bicyclo[3.2.1]octane-2,1′-cyclopropan]-7-yl sulfate]	C (C: 16-128 μg/mL)	C (C: 16-128 μg/mL)	B (B: 8-16 μg/mL)	A (A: <8 μg/mL)	A (A: <8 μg/mL)	A (A: <8 μg/mL)	A (A: <8 μg/mL)	B (B: 8-16 μg/mL)	B (B: 8-16 μg/mL)	B (B: 8-16 μg/mL)	A (A: <8 μg/mL)	A (A: <8 μg/mL)	A (A: <8 μg/mL)	A (A: <8 μg/mL)	A (A: <8 μg/mL)	A (A: <8 μg/mL)
